Measured values as given in PMC5012888, “Structure-based identification and characterisation of structurally novel human P2X7 receptor antagonists” (Biochemical Pharmacology, 2016).

Key:
hP2X7R [1] = target: T1, hP2X7R (Homo sapiens, UniProt Q99572); details: known hP2X7R antagonists; cited from earlier work
T1 construct: expressed in transfected cells
T1 sequence (Q99572 1-595): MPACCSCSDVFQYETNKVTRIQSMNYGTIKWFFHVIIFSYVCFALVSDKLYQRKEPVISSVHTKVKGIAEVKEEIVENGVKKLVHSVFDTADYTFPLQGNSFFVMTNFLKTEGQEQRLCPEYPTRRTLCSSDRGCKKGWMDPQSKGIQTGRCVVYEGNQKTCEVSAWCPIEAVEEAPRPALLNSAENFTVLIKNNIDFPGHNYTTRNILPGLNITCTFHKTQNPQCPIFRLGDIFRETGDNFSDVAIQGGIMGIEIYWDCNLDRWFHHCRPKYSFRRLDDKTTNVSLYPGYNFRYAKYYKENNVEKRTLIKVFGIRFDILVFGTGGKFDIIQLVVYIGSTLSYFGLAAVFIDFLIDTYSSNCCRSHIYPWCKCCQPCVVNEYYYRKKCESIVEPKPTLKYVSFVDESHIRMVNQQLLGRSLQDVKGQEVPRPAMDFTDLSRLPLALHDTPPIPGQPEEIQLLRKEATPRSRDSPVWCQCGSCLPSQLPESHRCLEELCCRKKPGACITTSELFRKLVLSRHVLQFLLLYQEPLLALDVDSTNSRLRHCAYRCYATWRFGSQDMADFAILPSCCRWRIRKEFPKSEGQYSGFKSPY

hP2X7R [2] = target: T1, hP2X7R; experiment: BzATP-induced Ca2+ responses in HEK293 cells expressing hP2X7R (FlexStation, Fura-2); assay type: cell-based; details: 300 μM BzATP
Source text: (§1) Human embryonic kidney (HEK) 293 cells stably expressing C-terminally EE-tagged human or rat P2X7R [42], [34], human P2X4R [15] and rat P2X3R [28] were generated in previous studies. A stable HEK293 cell line expressing C-terminally His-tagged human P2X7R was generated in this study and there was no difference in the experimental results using EE-tagged and His-tagged human P2X7R. These cells were maintained in Dulbecco’s Modified Eagle Medium (Life Technologies) supplemented with 10% foetal bovine serum and […] G418 in a tissue culture incubator at 37°C and 5% CO2 under humidified conditions. Cells were cultured in T25 flasks and split (every 3–4 days) once confluent.
FlexStation II and III (Molecular Devices) were used to measure intracellular Ca^2+ concentrations ([Ca^2+]i). Human or rat P2X7R-expressing HEK293 cells were plated in poly-D-lysine-coated 96-well plates (Molecular Devices) with 50,000 cells per well 24 h prior to use. […] Cells were excited at 340 nm and 380 nm alternatively and the emission at 510 nm recorded using a FlexStation. The ratio of fluorescence intensity (F340/F380) was used to indicate the [Ca^2+]i. The basal [Ca^2+]i was recorded for 60 s prior to the exposure to agonist and recording was continued for a further 120 s. […] The maximal changes in F340/F380 (ΔF340/380) were used for quantitative analysis. […]

rP2X7R = target: T2, rP2X7R (Rattus norvegicus, UniProt Q64663); experiment: BzATP-induced Ca2+ responses in HEK293 cells expressing rP2X7R (FlexStation, Fura-2); assay type: cell-based; details: 300 μM BzATP
T2 construct: expressed in transfected cells
T2 sequence (Q64663 1-595): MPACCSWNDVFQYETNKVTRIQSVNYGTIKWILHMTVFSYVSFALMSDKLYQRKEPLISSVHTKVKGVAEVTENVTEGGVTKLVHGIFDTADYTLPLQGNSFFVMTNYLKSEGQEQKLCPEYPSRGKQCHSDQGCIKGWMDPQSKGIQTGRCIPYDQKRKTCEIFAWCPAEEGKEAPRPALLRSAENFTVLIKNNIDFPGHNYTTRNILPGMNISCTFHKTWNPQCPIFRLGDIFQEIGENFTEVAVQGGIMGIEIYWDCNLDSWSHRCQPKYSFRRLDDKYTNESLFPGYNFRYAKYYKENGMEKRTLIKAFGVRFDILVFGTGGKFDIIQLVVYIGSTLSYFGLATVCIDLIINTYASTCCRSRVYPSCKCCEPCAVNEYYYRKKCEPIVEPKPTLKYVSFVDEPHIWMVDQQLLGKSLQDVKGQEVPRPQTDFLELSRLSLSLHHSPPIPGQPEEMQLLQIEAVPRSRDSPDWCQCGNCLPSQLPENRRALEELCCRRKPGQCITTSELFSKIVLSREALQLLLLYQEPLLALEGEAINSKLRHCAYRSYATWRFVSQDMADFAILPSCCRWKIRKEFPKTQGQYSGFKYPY
Source text: as §1
FlexStation II and III (Molecular Devices) were used to measure intracellular Ca^2+ concentrations ([Ca^2+]i). Human or rat P2X7R-expressing HEK293 cells were plated in poly-D-lysine-coated 96-well plates (Molecular Devices) with 50,000 cells per well 24 h prior to use. […] Cells were excited at 340 nm and 380 nm alternatively and the emission at 510 nm recorded using a FlexStation. The ratio of fluorescence intensity (F340/F380) was used to indicate the [Ca^2+]i. The basal [Ca^2+]i was recorded for 60 s prior to the exposure to agonist and recording was continued for a further 120 s. […] The maximal changes in F340/F380 (ΔF340/380) were used for quantitative analysis.

inhibition of BzATP-induced Ca^2+ responses (hP2X7R) (hP2X7R [2]; 200 nM AZ11645373 (Fig. 1 legend)) [%]	inhibition of BzATP-induced Ca^2+ responses (rP2X7R) (rP2X7R; 200 nM AZ11645373 (Fig. 1 legend), compared with BBG)	inhibition at 10 µM (hP2X7R [2]; HEK293, compound at 10 μM, read-out: inhibition of BzATP-induced Ca^2+ responses (hP2X7R)) [%]	inhibition of BzATP-induced Ca^2+ responses (rP2X7R) (rP2X7R; compound at 10 μM)	SMILES	predicted energy binding score (hP2X7R [1]) [kcal/mol]
				C[S+]([O-])c1ccc(-c2nc(-c3ccncc3)c(-c3ccc(F)cc3)[nH]2)cc1 (stereo not shown) [SB203580]	-8.75
81.9 ± 5	far less effective			O=C1CSC(=O)N1C(CCc1ccncc1)COc1ccc(-c2cccc([N+](=O)[O-])c2)cc1 (stereo not shown) [AZ11645373]	-10.8
		71.5 ± 5	strongly inhibited	CCOc1ccc(Nc2ccc(/C(=C3C=C/C(=[N+](/CC)Cc4cccc(S(=O)(=O)[O-])c4)C=C/3C)c3ccc(N(CC)Cc4cccc(S(=O)(=O)O)c4)cc3C)cc2)cc1 [BBG, brilliant blue G]	
				CN([C@@H](Cc1ccc(OS(=O)(=O)c2cccc3cnccc23)cc1)C(=O)N1CCN(c2ccccc2)CC1)S(=O)(=O)c1cccc2cnccc12 [KN-62]	-5.2
